Here are results for six compounds from patent US8053461B2, “Oxindole derivative” (Theravalues Corporation, priority 2006, dated 2011).

Counter-ions that a name gives are not always drawn.

For series [1], the target named is T1, recombinant GST-Pim-1 kinase (Homo sapiens, UniProt P11309).
T1 construct: GST
The series can be described thus: In vitro system for measurement of Pim-1 kinase activity (phosphorylation of biotinylated p21 peptide, OD450). In kind it is biochemical. The conditions noted are these: ATP 10 μM, 25° C., 30 minutes; read-out: 50% inhibitory concentration (IC50) of Pim-1 kinase activity. The procedure:
The sensitivity (IC50: inhibitory concentration of 50% of activity) and concentration dependence of these novel compounds to inhibition of Pim-1 activity were studied (using the following system).
In Vitro System for Measurement of Pim-1 Kinase Activity:
(1) Add a biotinylated p21 peptide (1 mM) as a substrate to be phosphorylated by Pim-1 and a recombinant GST-Pim-1 kinase (18 μg/ml) to a kinase buffer.
(2) Add a test compound (dissolved in 2% DMSO) or 2% DMSO (a solvent control) thereto.
(3) Add ATP (10 μM) thereto and incubate the mixture at 25° C. for 30 minutes (initiate a kinase reaction).
(4) Add EDTA (10 mM) thereto to stop the reaction.
(5) Add 10 μl of the kinase reaction mixture to a 96-well plate (which has been blocked in advance) coated with avidin, and incubate the plate at room temperature for 60 minutes.
(6) Wash the wells with a washing buffer three times.
(7) Add a diluted solution (1:500) of an antibody which recognizes phosphorylated p21 (Thr145) to the wells in an amount of 100 μl per well and incubate the plate for 90 minutes.
(8) Wash the wells with a washing buffer three times.
(9) Add a diluted solution (1:2000) of a secondary antibody which […] to the wells in an amount of 100 μl per well and incubate the plate for 60 minutes.
(10) Wash the wells with a washing buffer five times.
(11) Add a substrate (TMB) for peroxidase to the wells and incubate the plate for 8 minutes. Then, stop the reaction with 2 M H2SO4 and perform the colorimetric determination using a microplate reader (OD450).

Series [2] concerns esophageal squamous cell carcinoma cell line (T.Tn). The series can be described thus: Cytotoxicity, MTS method. The format is cell-based. The protocol:
(§1) Various cancer cell lines were seeded in 96-well plates at a density of 3 to 5000 cells per well, and on the following day, any of the novel compounds was added thereto such that the final concentrations of the compounds were 0 to 100 μM (the concentration of the solvent DMSO was 0.5%) and the plates were incubated for 24 to 72 hours. The cytotoxicity to cancer cells can be examined by calculating the viable cell count by the MTS method (CellTiter 96 Aqueous One Solution Cell Proliferation Assay, Promega) after incubation. Here, the MTS method is a viable cell count calculation method using the fact that a tetrazolium compound (MTS) is converted into a chromogenic formazan product by an oxidoreductase of viable cells. In the measurement method, to each well of a 96-well plate containing 100 μl of a culture medium and sample cells, 20 μl of CellTiter 96 Aqueous One Solution Reagent is added and the plate was incubated in an incubator at 37° C. for 90 to 120 minutes, and then, the absorbance at 490 nm is measured using a 96-well plate reader.

Series [3] has as its system lung cancer cell line (A549). The series can be described thus: Cytotoxicity, MTS method. In kind it is cell-based. The protocol:
as §1

The subject of series [4] is normal renal cell line (293). As to the kind of experiment: Cytotoxicity, MTS method. In kind it is cell-based. The settings on record: at 100 μM and 10 μM, even at 1 μM to some cell lines, FIG. 2. The protocol:
as §1

Series [5] has as its system oral squamous cell carcinoma cell line (HSC-3). The series can be described thus: Cytotoxicity, MTS method. In kind it is cell-based. The conditions noted are these: at 100 μM and 10 μM, even at 1 μM to some cell lines, FIG. 2. The procedure: as §1
For series [6], the system named is pancreatic cancer cell line (MiaPaCa-2). The series can be described thus: Cytotoxicity, MTS method. In kind it is cell-based. The conditions noted are these: at 100 μM and 10 μM, even at 1 μM to some cell lines, FIG. 2. The procedure:
as §1

Series [7] relates to uterine cancer cell line (HeLa). The series can be described thus: Cytotoxicity, MTS method. In kind it is cell-based. The settings on record: at 100 μM and 10 μM, even at 1 μM to some cell lines, FIG. 2. The procedure:
as §1

Series [8] deals with prostate cancer cell line (PC-3). As to the kind of experiment: Cytotoxicity, MTS method, time course. The format is cell-based. The settings on record: time course observation of viable cell count, FIG. 3. The protocol:
as §1

For series [9], the system named is pancreatic cancer cell line (BxPC-3). As to the kind of experiment: Cytotoxicity, MTS method, time course. The format is cell-based. The settings on record: FIG. 4. The procedure: as §1

T1 sequence (P11309 whole entry): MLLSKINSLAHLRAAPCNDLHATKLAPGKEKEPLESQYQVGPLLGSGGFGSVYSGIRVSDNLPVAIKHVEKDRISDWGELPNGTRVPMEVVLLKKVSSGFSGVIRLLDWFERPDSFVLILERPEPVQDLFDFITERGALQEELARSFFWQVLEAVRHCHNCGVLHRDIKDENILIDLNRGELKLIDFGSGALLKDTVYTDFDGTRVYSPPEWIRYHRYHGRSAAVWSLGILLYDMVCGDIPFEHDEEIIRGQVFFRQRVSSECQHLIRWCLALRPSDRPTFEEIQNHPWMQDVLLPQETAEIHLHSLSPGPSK

As for `O=C1Nc2ccccc2/C1=C\c1ccc(/C=C2/C(=O)Nc3ccccc32)o1` [compound (1), (3E)-3[(5-((E)-(2-oxoindolin-3-ylidene)methyl)furan-2-yl)methylene]indoline-2-one], in series [1], the IC50 is 50 nM. For the same compound, the cytotoxicity result in series [2] (T.Tn, at 100 μM and 10 μM, even at 1 μM to some cell lines, FIG. 2) is “remarkable cytotoxicity”; in series [3] (A549, at 100 μM and 10 μM, even at 1 μM to some cell lines, FIG. 2), “remarkable cytotoxicity”; in series [4] it was “remarkable cytotoxicity”; in [5], “remarkable cytotoxicity”; in [6], “remarkable cytotoxicity”; in series [7], “remarkable cytotoxicity”. For the same compound, the cell lethal effect entry in series [8] is “has a cell lethal effect”.

Regarding `CC(=O)N1C(=O)/C(=C/c2ccc(/C=C3/C(=O)N(C(C)=O)c4ccccc43)o2)c2ccccc21` [compound (2), (3E)-1-acetyl-3-[((5E)-((1-acetyl-2-oxoindolin-3-ylidene)methyl)furan-2-yl)methylene]indolin-2-one], the IC50 in series [1] came to 10 nM. The “cell proliferation inhibitory effect and cell lethal effect” value in series [2] (esophageal squamous cell carcinoma cell line (T.Tn), time course, FIG. 4) is “has a cell proliferation inhibitory effect and a cell lethal effect”; in series [3] (lung cancer cell line (A549), time course, FIG. 4), “has a cell proliferation inhibitory effect and a cell lethal effect”; in series [9], “has a cell proliferation inhibitory effect and a cell lethal effect”.

For `CC(=O)N1C(=O)/C(=C/c2ccc(/C=C3/C(=O)Nc4ccccc43)o2)c2ccccc21` [compound (3), (3E)-3-((5-((E)-(1-acetyl-2-oxoindolin-3-ylidene)methyl)furan-2-yl)methylene)indolin-2-one], in [1], the IC50 came to 800 nM.

On to `CCCC(=O)N1C(=O)/C(=C/c2ccc(/C=C3/C(=O)N(C(=O)CCC)c4ccccc43)o2)c2ccccc21` [compound (7), (3E)-1-butyryl-3-[((5E)-((1-butyryl-2-oxoindolin-3-ylidene)methyl)furan-2-yl)methylene]indolin-2-one], for which, in series [1], the IC50 came to 26 nM.

For `CC(=O)N1C(=O)/C(=C/c2ccc(/C=C3/C(=O)Nc4ccc(C(=O)O)cc43)o2)c2ccccc21` [compound (9), (3E)-3-((5-((E)-(1-acetyl-2-oxoindolin-3-ylidene)methyl)furan-2-yl)methylene)-2-oxoindoline-5-carboxylic acid sodium salt], in series [1], the IC50 amounted to 1400 nM.

For `CC(=O)N1C(=O)/C(=C/c2ccc(/C=C3/C(=O)Nc4cc(C(=O)O)ccc43)o2)c2ccccc21` [compound (10), (3E)-3-((5-((E)-(1-acetyl-2-oxoindolin-3-ylidene)methyl)furan-2-yl)methylene)-2-oxoindoline-6-carboxylic acid sodium salt], the IC50 in [1] came to 580 nM.
